{"source": "patent US20140057978A1", "about": "“NOVEL USE OF BENZOFURANYLSULFONATES” (priority 2011, published 2014)", "key": {"[1]": {"test_system": "embryonic DRG (Dorsal Root Ganglion) explants", "experiment": "Axonal growth in embryonic DRG explants", "assay_type": "cell-based, rat", "conditions": "22 hours in vitro", "experimental": "(§1) In vitro experiments with a benzofuranylsulfonate to improve axonal growth and Schwann cell expansion in embryonic DRG (Dorsal Root Ganglion) explants of rats.\n(§2) Outgrowth studies with Methanesulfonic acid 2-(2,4-dichloro-benzoyl)-3-ureido-benzofuran-6-yl ester or the vehicle were performed on embryonic neural tissue. DRGs of thoracic, lumbar, and sacral levels were prepared from Wistar rat embryos E18-20 and processed in ice cold 0.6% glucose in PBS. Harvested DRGs were freed from attaching nerve fibres, dissected, and transferred onto PDL- and laminin-coated glass coverlips. To avoid cluster formation, a maximum of two DRG explants were transferred onto a single glass coverslip. Following an initial attachment phase, the pre-incubation medium was replaced by fully supplemented growth medium spiked with the test item (Methanesulfonic acid 2-(2,4-dichloro-benzoyl)-3-ureido-benzofuran-6-yl ester groups 2 and 3) or vehicle (DMF, group 1) and incubated at 37° C./10% CO2 for additional 22 hours in vitro. Following 22 hours in vitro, the DRG explants were fluorescently labelled and axonal growth and Schwann cell expansion were quantitatively assessed.\n(§3) Group 1: Fully supplemented growth medium with 0.1% vehicle. Group 2: Fully supplemented growth medium with 0.1% vehicle and Methanesulfonic acid 2-(2,4-dichloro-benzoyl)-3-ureido-benzofuran-6-yl ester at a final concentration of 0.1 μM. Group 3: Fully supplemented growth medium with 0.1% vehicle and Methanesulfonic acid 2-(2,4-dichloro-benzoyl)-3-ureido-benzofuran-6-yl ester at a final concentration of 1 μM.\nMorphometric data are presented as the mean values and standard deviations of the axonal growth area in μm^2."}, "[2]": {"test_system": "Schwann cells of embryonic DRG explants", "experiment": "Schwann cell expansion in embryonic DRG explants", "assay_type": "cell-based, rat", "conditions": "for Schwann cell expansion (numbers of Schwann cells outside the DRG explant core): 22 hours in vitro, versus vehicle", "experimental": "as §1, §2, §3\nData are presented as the mean values and standard deviations of the numbers of Schwann cells outside the DRG explant core."}, "[3]": {"test_system": "severe contusive SCI in Lewis rats", "experiment": "BBB open field locomotor rating scale after severe spinal cord contusion injury", "assay_type": "in vivo", "conditions": "rat, oral", "experimental": "Oral treatment with a benzofuranylsulfonate after severe spinal cord contusion injury in the rat.\nThirteen week-old female Lewis rats (Charles River, Sulzfeld Germany) were housed under a 12:12 h dark/light regime and allowed free access to water and food. After one week of habituation the animals underwent general anesthesia with a mixture of isoflurane and air (induction: 5% isoflurane, maintenance: 2.2% isofluorane). A Th10 laminectomy was performed without rupturing the dura and a severe contusive SCI (25 gcm NYU/MASCIS II impactor) (Gruner, 1992) was induced. After suturing muscle and skin, a subcutaneous (s.c.) injection of 5 ml of Ringers Lactate was given. Bladders were emptied manually 2 times a day until spontaneous voiding returned (usually within 1 week). The lesion severity was verified by the impact velocity and contusion depth of the impactor rod. Animals with an impact velocity error >5% were excluded from further analysis. After injury, individual rats were randomly assigned into a treatment group. The following groups were used: […]\nThe BBB open field locomotor rating scale: The BBB locomotor rating scale was used to assess general locomotor performance (Basso et al., 1995). The score was assessed before injury and at 1, 3, 5, 7, 14, 21, 35, 42, 49, 56 and 63 days post operation (dpo) by 2 blinded observers."}}, "data": [{"smiles": "CS(=O)(=O)Oc1ccc2c(NC(N)=O)c(C(=O)c3ccc(Cl)cc3Cl)oc2c1", "note": "[methanesulfonic acid 2-(2,4-dichloro-benzoyl)-3-ureido-benzofuran-6-yl ester]", "values": [{"measurement": "growth area of outgrowing axons, as compared to vehicle-treated cultures", "setting": "[1]; 0.1 μM", "result": "significant increase"}, {"measurement": "growth area of outgrowing axons, as compared to vehicle-treated cultures", "setting": "[1]; 1 μM", "result": "significant increase"}, {"measurement": "elevation of axonal growth areas (fold)", "setting": "[1]; 1 μM, versus vehicle", "result": "nearly five fold"}, {"measurement": "Schwann cell expansion (numbers of Schwann cells outside the DRG explant core)", "setting": "[2]; 0.1 μM", "result": "significant increase"}, {"measurement": "Schwann cell expansion (numbers of Schwann cells outside the DRG explant core)", "setting": "[2]; 1 μM", "result": "significant increase"}, {"measurement": "increase of Schwann cell numbers (fold)", "setting": "[2]; treated cultures versus vehicle-treated cultures, highest at 0.1 μM", "result": "nearly fivefold"}, {"measurement": "BBB score at steady state", "setting": "[3]; 10 mg in vehicle, vehicle animals 7.8", "result": 8.8}, {"measurement": "BBB performance compared to vehicle controls at the end of the experiment", "setting": "[3]; 10 mg, DPO 56, Students T-Test p=0.01", "result": "significantly better"}]}]}
